Measured values from PubChem BioAssay (NCI).
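Each compound was tested at five concentrations against cells in 96-well plates for 48 hours. Abbreviation: GI50, concentration required for 50% inhibition of growth. TGI denotes the concentration required for complete inhibition of growth.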

Tests used:
Assay in all cases: DTP human tumour cell line panel, 48 h
786-0 renal = test system: 786-0 renal
A498 renal = test system: A498 renal
ACHN renal = test system: ACHN renal
BT-549 breast = test system: BT-549 breast
CAKI-1 renal = test system: CAKI-1 renal
CCRF-CEM leukemia = test system: CCRF-CEM leukemia
COLO 205 colon = test system: COLO 205 colon
DU-145 prostate = test system: DU-145 prostate
EKVX NSCLC = test system: EKVX NSCLC
HCC-2998 colon = test system: HCC-2998 colon
HCT-116 colon = test system: HCT-116 colon
HL-60(TB) leukemia = test system: HL-60(TB) leukemia
HOP-62 NSCLC = test system: HOP-62 NSCLC
HOP-92 NSCLC = test system: HOP-92 NSCLC
HS 578T breast = test system: HS 578T breast
HT29 colon = test system: HT29 colon
IGROV1 ovarian = test system: IGROV1 ovarian
K-562 leukemia = test system: K-562 leukemia
KM12 colon = test system: KM12 colon
LOX IMVI melanoma = test system: LOX IMVI melanoma
MALME-3M melanoma = test system: MALME-3M melanoma
MCF7 breast = test system: MCF7 breast
MDA-MB-231 breast = test system: MDA-MB-231 breast
MDA-MB-435 = test system: MDA-MB-435
MOLT-4 leukemia = test system: MOLT-4 leukemia
NCI-H226 lung = test system: NCI-H226 lung
NCI-H23 lung = test system: NCI-H23 lung
NCI-H460 lung = test system: NCI-H460 lung
NCI-H522 lung = test system: NCI-H522 lung
NCI/ADR-RES ovarian = test system: NCI/ADR-RES ovarian
OVCAR-3 ovarian = test system: OVCAR-3 ovarian
OVCAR-4 ovarian = test system: OVCAR-4 ovarian
OVCAR-5 ovarian = test system: OVCAR-5 ovarian
OVCAR-8 ovarian = test system: OVCAR-8 ovarian
PC-3 prostate = test system: PC-3 prostate
RXF 393 renal = test system: RXF 393 renal
SF-268 CNS = test system: SF-268 CNS
SF-295 CNS = test system: SF-295 CNS
SF-539 CNS = test system: SF-539 CNS
SK-MEL-2 melanoma = test system: SK-MEL-2 melanoma
SK-MEL-28 melanoma = test system: SK-MEL-28 melanoma
SK-MEL-5 melanoma = test system: SK-MEL-5 melanoma
SK-OV-3 ovarian = test system: SK-OV-3 ovarian
SN12C renal = test system: SN12C renal
SNB-19 CNS = test system: SNB-19 CNS
SNB-75 CNS = test system: SNB-75 CNS
SW-620 colon = test system: SW-620 colon
T-47D breast = test system: T-47D breast
TK-10 renal = test system: TK-10 renal
U251 CNS = test system: U251 CNS
UACC-257 melanoma = test system: UACC-257 melanoma
UACC-62 melanoma = test system: UACC-62 melanoma
UO-31 renal = test system: UO-31 renal
A549 NSCLC = test system: A549 NSCLC
HCT-15 colon = test system: HCT-15 colon
M14 melanoma = test system: M14 melanoma
RPMI-8226 leukemia = test system: RPMI-8226 leukemia

O=C1c2ccccc2C(=O)c2c1ccc1c(=O)n(-c3ccccc3C(F)(F)F)nnc21
GI50 (786-0 renal): 4.09 µM
TGI (786-0 renal): > 100 µM
GI50 (A498 renal): 1.76 µM
TGI (A498 renal): 3.65 µM
GI50 (ACHN renal): 2.7 µM
TGI (ACHN renal): > 100 µM
GI50 (BT-549 breast): 1.81 µM
TGI (BT-549 breast): 6.8 µM
GI50 (CAKI-1 renal): 2.77 µM
TGI (CAKI-1 renal): > 100 µM
GI50 (CCRF-CEM leukemia): 2.03 µM
TGI (CCRF-CEM leukemia): > 100 µM
GI50 (COLO 205 colon): 1.83 µM
TGI (COLO 205 colon): 4.28 µM
GI50 (DU-145 prostate): 3.19 µM
TGI (DU-145 prostate): > 100 µM
GI50 (EKVX NSCLC): 2.36 µM
TGI (EKVX NSCLC): 6.43 µM
GI50 (HCC-2998 colon): 2.45 µM
TGI (HCC-2998 colon): 6.16 µM
GI50 (HCT-116 colon): 1.85 µM
TGI (HCT-116 colon): 10.5 µM
GI50 (HL-60(TB) leukemia): 1.76 µM
TGI (HL-60(TB) leukemia): 5.48 µM
GI50 (HOP-62 NSCLC): 1.28 µM
TGI (HOP-62 NSCLC): 19.1 µM
GI50 (HOP-92 NSCLC): 2.08 µM
TGI (HOP-92 NSCLC): 5.94 µM
GI50 (HS 578T breast): 3.04 µM
TGI (HS 578T breast): > 100 µM
GI50 (HT29 colon): 3.43 µM
TGI (HT29 colon): > 100 µM
GI50 (IGROV1 ovarian): 1.33 µM
TGI (IGROV1 ovarian): 3.31 µM
GI50 (K-562 leukemia): 1.76 µM
TGI (K-562 leukemia): > 100 µM
GI50 (KM12 colon): 1.88 µM
TGI (KM12 colon): 5.5 µM
GI50 (LOX IMVI melanoma): 1.59 µM
TGI (LOX IMVI melanoma): 4.2 µM
GI50 (MALME-3M melanoma): 1.27 µM
TGI (MALME-3M melanoma): 2.54 µM
GI50 (MCF7 breast): 1.86 µM
TGI (MCF7 breast): 4.64 µM
GI50 (MDA-MB-231 breast): 2.07 µM
TGI (MDA-MB-231 breast): 7.04 µM
GI50 (MDA-MB-435): 1.66 µM
TGI (MDA-MB-435): 3.1 µM
GI50 (MOLT-4 leukemia): 1.53 µM
TGI (MOLT-4 leukemia): 8.12 µM
GI50 (NCI-H226 lung): 2.38 µM
TGI (NCI-H226 lung): 5.87 µM
GI50 (NCI-H23 lung): 1.34 µM
TGI (NCI-H23 lung): 3.51 µM
GI50 (NCI-H460 lung): 1.97 µM
TGI (NCI-H460 lung): 5.07 µM
GI50 (NCI-H522 lung): 1.81 µM
TGI (NCI-H522 lung): 5.71 µM
GI50 (NCI/ADR-RES ovarian): 2.05 µM
TGI (NCI/ADR-RES ovarian): 9.23 µM
GI50 (OVCAR-3 ovarian): 0.315 µM
TGI (OVCAR-3 ovarian): 1.42 µM
GI50 (OVCAR-4 ovarian): 1 µM
TGI (OVCAR-4 ovarian): 2.21 µM
GI50 (OVCAR-5 ovarian): 2.19 µM
TGI (OVCAR-5 ovarian): 6.01 µM
GI50 (OVCAR-8 ovarian): 2.49 µM
TGI (OVCAR-8 ovarian): > 100 µM
GI50 (PC-3 prostate): 2.2 µM
TGI (PC-3 prostate): > 100 µM
GI50 (RXF 393 renal): 2.15 µM
TGI (RXF 393 renal): 4.87 µM
GI50 (SF-268 CNS): 2.74 µM
TGI (SF-268 CNS): > 100 µM
GI50 (SF-295 CNS): 2.59 µM
TGI (SF-295 CNS): 7.02 µM
GI50 (SF-539 CNS): 2.57 µM
TGI (SF-539 CNS): 8.49 µM
GI50 (SK-MEL-2 melanoma): 2.64 µM
TGI (SK-MEL-2 melanoma): 7.61 µM
GI50 (SK-MEL-28 melanoma): 5.79 µM
TGI (SK-MEL-28 melanoma): > 100 µM
GI50 (SK-MEL-5 melanoma): 1.67 µM
TGI (SK-MEL-5 melanoma): 3.05 µM
GI50 (SK-OV-3 ovarian): 3.52 µM
TGI (SK-OV-3 ovarian): > 100 µM
GI50 (SN12C renal): 2.23 µM
TGI (SN12C renal): 28.9 µM
GI50 (SNB-19 CNS): 2.68 µM
TGI (SNB-19 CNS): 31.2 µM
GI50 (SNB-75 CNS): 1.56 µM
TGI (SNB-75 CNS): 15.5 µM
GI50 (SW-620 colon): 3.43 µM
TGI (SW-620 colon): > 100 µM
GI50 (T-47D breast): 1.86 µM
TGI (T-47D breast): 6.98 µM
GI50 (TK-10 renal): 3.89 µM
TGI (TK-10 renal): > 100 µM
GI50 (U251 CNS): 2.66 µM
TGI (U251 CNS): 17.9 µM
GI50 (UACC-257 melanoma): 1.71 µM
TGI (UACC-257 melanoma): 3.51 µM
GI50 (UACC-62 melanoma): 1.52 µM
TGI (UACC-62 melanoma): 3.21 µM
GI50 (UO-31 renal): 1.68 µM
TGI (UO-31 renal): > 100 µM

CCCCCC[C@@H](C)Nc1nc2ccccc2c2occc12
GI50 (786-0 renal): 14.3 µM
TGI (786-0 renal): 27.8 µM
GI50 (A498 renal): 18.6 µM
TGI (A498 renal): 35.1 µM
GI50 (A549 NSCLC): 19.4 µM
TGI (A549 NSCLC): 78.2 µM
GI50 (ACHN renal): 15.5 µM
TGI (ACHN renal): 28.8 µM
GI50 (BT-549 breast): 3.05 µM
TGI (BT-549 breast): 18.2 µM
GI50 (CAKI-1 renal): 13.6 µM
TGI (CAKI-1 renal): 32.1 µM
GI50 (CCRF-CEM leukemia): 12.2 µM
TGI (CCRF-CEM leukemia): 39.2 µM
GI50 (COLO 205 colon): 21.2 µM
TGI (COLO 205 colon): > 100 µM
GI50 (DU-145 prostate): 9.79 µM
TGI (DU-145 prostate): 21.5 µM
GI50 (EKVX NSCLC): 0.39 µM
TGI (EKVX NSCLC): 5 µM
GI50 (HCC-2998 colon): 9.35 µM
TGI (HCC-2998 colon): 21.5 µM
GI50 (HCT-116 colon): 4.87 µM
TGI (HCT-116 colon): 18.1 µM
GI50 (HCT-15 colon): 10.1 µM
TGI (HCT-15 colon): 21.6 µM
GI50 (HL-60(TB) leukemia): 22.4 µM
TGI (HL-60(TB) leukemia): 62.9 µM
GI50 (HOP-62 NSCLC): 14.8 µM
TGI (HOP-62 NSCLC): 28 µM
GI50 (HOP-92 NSCLC): 11.2 µM
TGI (HOP-92 NSCLC): 27.2 µM
GI50 (HS 578T breast): 16.5 µM
TGI (HS 578T breast): 40.5 µM
GI50 (HT29 colon): 14.5 µM
TGI (HT29 colon): 43.5 µM
GI50 (IGROV1 ovarian): 0.0871 µM
TGI (IGROV1 ovarian): 11.5 µM
GI50 (K-562 leukemia): 19.9 µM
TGI (K-562 leukemia): > 100 µM
GI50 (KM12 colon): 14 µM
TGI (KM12 colon): 34.4 µM
GI50 (LOX IMVI melanoma): 13.9 µM
TGI (LOX IMVI melanoma): 26.9 µM
GI50 (M14 melanoma): 11.2 µM
TGI (M14 melanoma): 23.2 µM
GI50 (MCF7 breast): 10.5 µM
TGI (MCF7 breast): > 100 µM
GI50 (MDA-MB-231 breast): 10.8 µM
TGI (MDA-MB-231 breast): 22.7 µM
GI50 (MDA-MB-435): 15.5 µM
TGI (MDA-MB-435): 40.2 µM
GI50 (MOLT-4 leukemia): 20.9 µM
TGI (MOLT-4 leukemia): > 100 µM
GI50 (NCI-H23 lung): 1 µM
TGI (NCI-H23 lung): 6.97 µM
GI50 (NCI-H460 lung): 4.19 µM
TGI (NCI-H460 lung): > 100 µM
GI50 (NCI-H522 lung): 1.83 µM
TGI (NCI-H522 lung): 13.3 µM
GI50 (NCI/ADR-RES ovarian): 10.7 µM
TGI (NCI/ADR-RES ovarian): 22.6 µM
GI50 (OVCAR-3 ovarian): 13.5 µM
TGI (OVCAR-3 ovarian): 38.2 µM
GI50 (OVCAR-5 ovarian): 14 µM
TGI (OVCAR-5 ovarian): 27.4 µM
GI50 (OVCAR-8 ovarian): 20.7 µM
TGI (OVCAR-8 ovarian): > 100 µM
GI50 (PC-3 prostate): 22.9 µM
TGI (PC-3 prostate): 71.6 µM
GI50 (RPMI-8226 leukemia): 1.47 µM
TGI (RPMI-8226 leukemia): > 100 µM
GI50 (RXF 393 renal): 13.9 µM
TGI (RXF 393 renal): 34.4 µM
GI50 (SF-268 CNS): 14.7 µM
TGI (SF-268 CNS): 38.7 µM
GI50 (SF-295 CNS): 1.99 µM
TGI (SF-295 CNS): 19.5 µM
GI50 (SF-539 CNS): 10.5 µM
TGI (SF-539 CNS): 22.5 µM
GI50 (SK-MEL-2 melanoma): 1.32 µM
TGI (SK-MEL-2 melanoma): 20.5 µM
GI50 (SK-MEL-28 melanoma): 18.5 µM
TGI (SK-MEL-28 melanoma): 36.5 µM
GI50 (SK-MEL-5 melanoma): 2.89 µM
TGI (SK-MEL-5 melanoma): 18 µM
GI50 (SK-OV-3 ovarian): 15.7 µM
TGI (SK-OV-3 ovarian): 32.2 µM
GI50 (SN12C renal): 12.8 µM
TGI (SN12C renal): 25.4 µM
GI50 (SNB-19 CNS): 17.7 µM
TGI (SNB-19 CNS): 50.1 µM
GI50 (SW-620 colon): 11.2 µM
TGI (SW-620 colon): 26.5 µM
GI50 (T-47D breast): 7.24 µM
TGI (T-47D breast): 23.2 µM
GI50 (TK-10 renal): 10 µM
TGI (TK-10 renal): 23.6 µM
GI50 (U251 CNS): 11.7 µM
TGI (U251 CNS): 23.9 µM
GI50 (UACC-257 melanoma): 4.67 µM
TGI (UACC-257 melanoma): 24 µM
GI50 (UACC-62 melanoma): 13.2 µM
TGI (UACC-62 melanoma): 25.9 µM
GI50 (UO-31 renal): 2.05 µM
TGI (UO-31 renal): 17.2 µM
